Measured values published in ChEMBL document CHEMBL5241110, “Medicines for millions of patients” (RSC Med Chem, 2022).

Experiments:
Pancuronium = experiment: Binding affinity to pancuronium
Rocuronium = experiment: Binding affinity to rocuronium by ITC method

Row | Ka (Rocuronium) | SMILES | Ka (Pancuronium) [M⁻¹]
1 | – | CC(=O)O[C@@H]1C[C@H]2CCC3C4C[C@H]([N+]5(C)CCCCC5)[C@H](OC(C)=O)[C@@]4(C)CCC3[C@@]2(C)C[C@@H]1[N+]1(C)CCCCC1 (some centres not stated) | 167
2 | 1.05 10^7 M^-1 | O=C(O)CCSC[C@H]1O[C@@H]2O[C@H]3[C@H](O)[C@@H](O)[C@@H](O[C@H]4[C@H](O)[C@@H](O)[C@@H](O[C@H]5[C@H](O)[C@@H](O)[C@@H](O[C@H]6[C@H](O)[C@@H](O)[C@@H](O[C@H]7[C@H](O)[C@@H](O)[C@@H](O[C@H]8[C@H](O)[C@@H](O)[C@@H](O[C@H]9[C@H](O)C(O)[C@@H](O[C@H]1[C@H](O)[C@H]2O)O[C@@H]9CSCCC(=O)O)O[C@@H]8CSCCC(=O)O)O[C@@H]7CSCCC(=O)O)O[C@@H]6CSCCC(=O)O)O[C@@H]5CSCCC(=O)O)O[C@@H]4CSCCC(=O)O)O[C@@H]3CSCCC(=O)O (some centres not stated) | –
